How the values were obtained:
Human Calpain 1/NS1 = biological target: T1, Human Calpain 1/NS1 (Homo sapiens, UniProt P07384); test: Calpain inhibition continuous fluorescence (FRET) assay, Human Calpain 1/NS1; type: biochemical; settings: Column A; read-out: Human Calpain 1/NS1 IC50
T1 sequence (P07384 1-714): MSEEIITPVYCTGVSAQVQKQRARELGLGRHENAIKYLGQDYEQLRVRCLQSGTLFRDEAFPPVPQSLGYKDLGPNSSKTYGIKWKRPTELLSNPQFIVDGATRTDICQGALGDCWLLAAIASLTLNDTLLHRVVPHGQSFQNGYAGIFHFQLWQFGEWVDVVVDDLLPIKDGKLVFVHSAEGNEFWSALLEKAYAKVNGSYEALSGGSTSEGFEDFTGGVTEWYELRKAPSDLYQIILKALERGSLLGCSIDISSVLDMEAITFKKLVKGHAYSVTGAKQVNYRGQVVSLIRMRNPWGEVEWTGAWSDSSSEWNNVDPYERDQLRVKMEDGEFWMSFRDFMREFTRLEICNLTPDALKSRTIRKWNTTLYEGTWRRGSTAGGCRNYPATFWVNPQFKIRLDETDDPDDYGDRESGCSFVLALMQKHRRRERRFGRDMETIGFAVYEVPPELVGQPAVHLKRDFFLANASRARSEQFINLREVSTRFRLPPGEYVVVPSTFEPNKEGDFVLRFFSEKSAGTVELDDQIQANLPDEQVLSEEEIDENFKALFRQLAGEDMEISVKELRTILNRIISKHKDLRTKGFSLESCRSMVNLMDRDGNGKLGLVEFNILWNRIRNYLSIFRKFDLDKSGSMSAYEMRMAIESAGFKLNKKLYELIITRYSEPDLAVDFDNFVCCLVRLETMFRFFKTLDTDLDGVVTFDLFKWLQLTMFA
T1 sequence (P04632 1-268 partner): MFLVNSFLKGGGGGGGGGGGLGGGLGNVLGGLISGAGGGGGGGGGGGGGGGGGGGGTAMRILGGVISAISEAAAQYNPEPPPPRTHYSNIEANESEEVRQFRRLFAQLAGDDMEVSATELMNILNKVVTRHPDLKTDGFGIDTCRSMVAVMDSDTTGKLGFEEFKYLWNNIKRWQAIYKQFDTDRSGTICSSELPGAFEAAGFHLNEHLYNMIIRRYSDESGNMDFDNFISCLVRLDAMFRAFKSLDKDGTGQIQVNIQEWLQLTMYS
How it was run: (§1)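 Continuous FRET read (ex 490/em 520 nm, 10 min) of calpain 1, 2 or 9 cleaving an internally quenched 5-FAM peptide, triggered by substrate with CaCl2 after enzyme–inhibitor incubation at ambient 25 °C, pH 7.5 Tris/NaCl/DTT buffer. IC50 from initial rates (1-5 min) via 4-parameter fit.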

Human Calpain 2/NS1 = biological target: T2, Human Calpain 2/NS1 (Homo sapiens, UniProt P17655); test: Calpain inhibition continuous fluorescence (FRET) assay, Human Calpain 2/NS1; type: biochemical; settings: Column B; read-out: Human Calpain 2/NS1 IC50
T2 sequence (P17655 1-700): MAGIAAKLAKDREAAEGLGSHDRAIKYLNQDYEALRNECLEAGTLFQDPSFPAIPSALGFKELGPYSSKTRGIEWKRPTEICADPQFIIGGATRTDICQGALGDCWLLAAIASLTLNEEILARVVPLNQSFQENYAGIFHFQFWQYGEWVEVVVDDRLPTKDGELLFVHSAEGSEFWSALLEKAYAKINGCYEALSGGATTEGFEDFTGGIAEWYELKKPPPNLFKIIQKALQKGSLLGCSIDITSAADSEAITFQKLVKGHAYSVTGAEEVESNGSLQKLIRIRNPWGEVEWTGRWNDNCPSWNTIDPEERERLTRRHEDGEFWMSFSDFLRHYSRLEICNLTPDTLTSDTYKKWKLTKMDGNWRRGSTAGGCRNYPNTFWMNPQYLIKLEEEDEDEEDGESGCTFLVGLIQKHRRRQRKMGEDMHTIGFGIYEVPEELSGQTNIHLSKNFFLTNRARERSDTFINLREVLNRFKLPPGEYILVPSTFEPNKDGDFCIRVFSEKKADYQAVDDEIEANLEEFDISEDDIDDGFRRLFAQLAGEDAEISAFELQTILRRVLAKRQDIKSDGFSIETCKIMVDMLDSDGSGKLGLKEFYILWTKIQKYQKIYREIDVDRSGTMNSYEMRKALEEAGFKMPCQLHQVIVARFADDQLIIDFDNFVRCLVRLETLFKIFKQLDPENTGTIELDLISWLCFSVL
T2 sequence (P04632 1-268 partner): T1 sequence (P04632 1-268 partner)
How it was run: as §1

Human Calpain 9/NS1 = biological target: T3, Human Calpain 9/NS1 (Homo sapiens, UniProt O14815); test: Calpain inhibition continuous fluorescence (FRET) assay, Human Calpain 9/NS1; type: biochemical; settings: Column C; read-out: Human Calpain 9/NS1 IC50
T3 sequence (O14815 1-690): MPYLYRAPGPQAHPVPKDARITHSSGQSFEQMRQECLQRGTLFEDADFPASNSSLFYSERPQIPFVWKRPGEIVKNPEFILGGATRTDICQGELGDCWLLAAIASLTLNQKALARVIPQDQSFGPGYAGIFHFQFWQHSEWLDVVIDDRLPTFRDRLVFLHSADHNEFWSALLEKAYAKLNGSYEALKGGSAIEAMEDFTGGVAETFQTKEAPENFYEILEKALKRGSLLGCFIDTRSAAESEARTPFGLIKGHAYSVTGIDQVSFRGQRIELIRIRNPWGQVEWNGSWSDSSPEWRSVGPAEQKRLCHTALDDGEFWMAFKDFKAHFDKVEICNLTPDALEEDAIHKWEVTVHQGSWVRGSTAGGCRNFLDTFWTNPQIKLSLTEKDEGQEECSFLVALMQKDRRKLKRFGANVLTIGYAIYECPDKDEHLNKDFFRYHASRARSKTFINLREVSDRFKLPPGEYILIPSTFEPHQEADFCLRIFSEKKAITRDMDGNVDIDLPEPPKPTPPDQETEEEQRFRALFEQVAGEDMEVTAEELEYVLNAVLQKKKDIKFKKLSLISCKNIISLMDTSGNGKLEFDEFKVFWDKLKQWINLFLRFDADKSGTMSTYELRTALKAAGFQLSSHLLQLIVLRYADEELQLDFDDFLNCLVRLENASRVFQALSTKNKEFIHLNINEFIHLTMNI
T3 sequence (P04632 1-268 partner): T1 sequence (P04632 1-268 partner)
How it was run: as §1

[1] = tested on: Calpain activity in SH-SY5Y cells; test: SH-SY5Y + AMC fluorescence assay (Suc-LLVY-AMC substrate); type: cell-based; settings: Column E, read-out: SH-SY5Y + AMC IC50
[2] = tested on: Calpain activity in SH-SY5Y cells (SBDP-150); test: SH-SY5Y Spectrin western blot assay (SBDP-150 breakdown product, A23187-induced); type: cell-based; settings: Homo sapiens; Column D; SH-SY5Y cells, A23187-induced SBDP-150; read-out: SH-SY5Y Spectrin IC50

IC50 (Human Calpain 1/NS1) [µM]	IC50 (Human Calpain 2/NS1) [µM]	IC50 (Human Calpain 9/NS1) [µM]	IC50 [1] [µM]	IC50 [2] [µM]	Compound
< 3	< 3	< 3	< 10	< 10	NC(=O)C(=O)[C@H](Cc1ccccc1)NC(=O)c1oc(C(F)(F)F)nc1-c1ccccc1 [Compound 255, (S)—N-(4-amino-3,4-dioxo-1-phenylbutan-2-yl)-4-phenyl-2-(trifluoromethyl)oxazole-5-carboxamide]
< 3	< 3	< 3	< 10	10 to 25	Cc1n[nH]c(-c2ccccc2)c1C(=O)N[C@@H](Cc1ccccc1)C(=O)C(N)=O [Compound 257, (S)—N-(4-amino-3,4-dioxo-1-phenylbutan-2-yl)-3-methyl-5-phenyl-1H-pyrazole-4-carboxamide]
< 3	< 3	< 3	10 to 25	< 10	Cn1nc(C(=O)N[C@@H](Cc2ccccc2)C(=O)C(N)=O)c(-c2ccccc2)n1 [Compound 259, (S)—N-(4-amino-3,4-dioxo-1-phenylbutan-2-yl)-2-methyl-5-phenyl-2H-1,2,3-triazole-4-carboxamide]
< 3	< 3	< 3	> 25	> 25	Cc1nc(-c2ccccn2)c(C(=O)N[C@@H](Cc2ccccc2)C(=O)C(N)=O)o1 [Compound 266, (S)—N-(4-amino-3,4-dioxo-1-phenylbutan-2-yl)-2-methyl-4-(pyridin-2-yl)oxazole-5-carboxamide]
< 3	< 3	< 3	> 25	> 25	Cn1cnc(-c2ccccc2)c1C(=O)N[C@@H](Cc1ccccc1)C(=O)C(N)=O [Compound 268, (S)—N-(4-amino-3,4-dioxo-1-phenylbutan-2-yl)-1-methyl-4-phenyl-1H-imidazole-5-carboxamide]
< 3	< 3	< 3	< 10	< 10	Cc1cc(C(=O)N[C@@H](Cc2ccccc2)C(=O)C(N)=O)n(-c2ccccc2)n1 [Compound 276, (S)—N-(4-amino-3,4-dioxo-1-phenylbutan-2-yl)-3-methyl-1-phenyl-1H-pyrazole-5-carboxamide]
< 3	< 3	< 3	< 10	10 to 25	NC(=O)C(=O)[C@H](Cc1ccccc1)NC(=O)c1conc1-c1ccccc1F [Compound 277, (S)—N-(4-amino-3,4-dioxo-1-phenylbutan-2-yl)-3-(2-fluorophenyl)isoxazole-4-carboxamide]
< 3	< 3	< 3	> 25	< 10	NC(=O)C(=O)[C@H](Cc1ccccc1)NC(=O)c1c(-c2ccccc2)noc1C(F)(F)F [Compound 278, (S)—N-(4-amino-3,4-dioxo-1-phenylbutan-2-yl)-3-phenyl-5-(trifluoromethyl)isoxazole-4-carboxamide]
< 3	< 3	3 to 10	< 10	10 to 25	Cc1cc(C(=O)N[C@H](C=O)Cc2ccccc2)n(-c2ccncn2)n1 [Compound 279, (S)-3-methyl-N-(1-oxo-3-phenylpropan-2-yl)-1-(pyrimidin-4-yl)-1H-pyrazole-5-carboxamide]
< 3	< 3	< 3	< 10	10 to 25	Cn1nc(Cl)c(C(=O)NC(Cc2ccccc2)C(=O)C(N)=O)c1Cl (stereo not shown) [Compound 282, N-(4-amino-3,4-dioxo-1-phenylbutan-2-yl)-3,5-dichloro-1-methyl-1H-pyrazole-4-carboxamide]
< 3	< 3	< 3	10 to 25	> 25	Cc1cc(C(=O)N[C@H](C=O)Cc2ccccc2)n(-c2cnccn2)n1 [Compound 285, (S)-3-methyl-N-(1-oxo-3-phenylpropan-2-yl)-1-(pyrazin-2-yl)-1H-pyrazole-5-carboxamide]

— patent publication US11339130B1 (Blade Therapeutics, Inc., priority 2016, dated 2022)
